“Also recorded” adds a separate entry of the source.
Experiments:
human 5-HT2A receptor = human 5-HT2A receptor (Homo sapiens, UniProt P28223); experiment: Human 5-HT2A: Radioligand binding assay ([3H]-ketanserin); details: [3H]-ketanserin displacement, 27° C., 90 min, pH 7.4; read-out: h5-HT2A, IC50
Protocol: Exemplary compounds of Formula I were evaluated functionally using FLIPR assay for their effect on h5-HT2A receptor under agonist mode. The objective of this study was to evaluate the binding properties of exemplary compounds of Formula I on 5-hydroxytryptamine receptor 2A (5-HT2A). • Human 5-HT2A: Radioligand binding assay:
• i. The assay buffer was prepared following the table below.
• Adjust pH to 7.4 followed by […] sterile filtration • ii. 8 doses of reference and test compounds starting from 10 mM stock solution as required was prepared by 5-fold serial dilutions with 100% (v/v) DMSO. • iii. UniFilter-96 GF/B plate was pretreated: • a. 50 μl/well of 0.5% (v/v) PEI was added to UniFilter-96 […] plates. The plates were sealed and incubated at 4° C. for 3 hrs. • b. After incubation, the plates were washed 3 times with ice-cold wash buffer (50 mM Tris, pH7.4). • iv. The assay plate was prepared: • a. Cell membrane was diluted with assay buffer and 330 μl/well was added to 96 round deep well plates to reach a concentration of 20 μg/well. • b. 8 concentrations of reference or test compounds were prepared and 110 μl/well was added to 96 round deep well plates. • c. [3H]-ketanserin was diluted with assay buffer to 5 nM (5X final concentration) and 110 μl/well was added to 96 round deep well plates. • v. The plate was centrifuged at 1000 rpm for 30 secs and then agitated at 600 rpm, R.T. for 5 min. • vi. The plates were sealed and the plate incubated at 27° C. for 90 min. • vii. The incubation was stopped by vacuum filtration onto GF/B filter plates followed by 4 times washing with ice-cold wash buffer (50 mM Tris, pH7.4). • viii. The plates were dried at 37° C. for 45 min. • ix. The filter plates were sealed and 40 μl/well of scintillation cocktail was added. • x. The plate was read by using a Microbeta2 microplate counter.
• 1. For reference and test compounds, the results were expressed as % Inhibition, using the normalization equation: N=100−100×(U−C2)/(C1-C2), where U is the unknown value, C1 is the average of high controls, and C2 is the average of low controls. • 2. The IC50 was determined by fitting percentage of inhibition as a function of compound concentrations with Hill equation using XLfit.

[1] = target: T1, human 5-HT2A (h5-HT2A) receptor (Homo sapiens, UniProt P28223); experiment: FLIPR assay: human 5-HT2A (agonist mode); format: cell-based; details: @10 μM (head); footnote: curve fitting with activation (%) @ 10 mM with RFU; RFU=Fmax−Fmin
T1 construct: expressed in transfected cells; host or cells: HEK293 (HTR2A&Ga15-HEK293, tetracycline-induced)
T1 sequence (P28223 whole entry): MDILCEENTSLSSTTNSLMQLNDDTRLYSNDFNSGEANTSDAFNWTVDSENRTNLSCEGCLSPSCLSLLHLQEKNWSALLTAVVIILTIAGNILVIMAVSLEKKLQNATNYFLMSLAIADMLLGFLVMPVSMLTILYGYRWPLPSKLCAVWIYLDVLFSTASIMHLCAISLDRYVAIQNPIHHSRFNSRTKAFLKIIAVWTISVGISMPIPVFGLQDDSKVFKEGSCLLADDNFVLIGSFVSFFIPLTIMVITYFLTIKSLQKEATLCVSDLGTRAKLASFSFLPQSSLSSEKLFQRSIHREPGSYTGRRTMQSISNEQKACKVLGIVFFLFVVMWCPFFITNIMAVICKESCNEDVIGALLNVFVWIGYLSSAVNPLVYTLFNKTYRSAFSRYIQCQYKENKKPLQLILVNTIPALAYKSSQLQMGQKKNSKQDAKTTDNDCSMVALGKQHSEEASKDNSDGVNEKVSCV
Protocol: Assessment of the effect of exemplary compounds of Formula I targeting on human 5-HT2A (h5-HT2A) receptor under agonist mode.
HTR2A&Ga15-HEK293 cells were cultured in DMEM medium containing 10% dialyzed FBS and 1x penicillin-streptomycin, 100 μg/mL Hygromycin B and 300 μg/mL G418. The cells were passaged about three times a week, maintained between ~30% to ~90% confluence.
• 1. The cell culture medium (DMEM medium containing 10% dialyzed FBS and 1× penicillin-streptomycin, 100 μg/mL Hygromycin B and 300 μg/mL G418), TrypLE™ Express and DPBS to R.T. was warmed in advance. • 2. For induction, 1 μg/ml tetracycline (final concentration) was added to cell culture medium and incubated for 48 hours prior to seeding cells into plate at 37° C., 5% (v/v) CO2. The cell culture medium was removed from flask. Cells were washed with DPBS. • 3. 2 mL TrypLE™ Express was added to the flask, mixed well by gentle shaking and cells were incubated at 37° C. for a few minutes. • The cells were checked for morphological change under microscope, the digestion was stopped by adding 4 mL cell culture medium to the flask when most of cells turned to round. • 5. The cell suspension was transferred into a 15 mL centrifuge tube, and then centrifuged at 1,200 rpm for 5 minutes. • 6. The supernatant was removed. The cell pellet was resuspended with 2 mL cell culture medium. • 7. The cell density was counted using cell counter. Only cells with >85% viability were used for the assay. • 8. Cells were diluted to 6.67×10^5/mL with cell culture medium. • 9. 30 μL/well cell suspensions added into a 384-well cell plate (The cell density was 20,000 cells/well). • 10. The cell plate was incubated overnight at 37° C., 5% (v/v) CO2. 2.3 Cell handling • 1. On the day of experiments, culture medium was removed from the cell plate. • 2. 10 μL of assay buffer (20 mM HEPES, in 1×HBSS, pH 7.4) was added to each well of the cell plate. • 3. 2×dye solution was prepared following the manual of the FLIPR® Calcium 6 Assay Kit: • i. The dye was diluted with assay buffer. • ii. Probenecid was added to the final concentration of 5 mM. • iii. Vortexed vigorously for 1-2 minutes. • 4. 10 μL of 2× dye solution was added to each well of the cell plate • 5. The cell plate was placed on plate shaker, followed by shaking at 600 rpm for 2 minutes. • 6. The plate was incubated at 37° C. for 2 hours followed by an additional 15-minute incubation at 25° C. 2.4 Prepare 3×compound • 1. Serotonin HCl was prepared to the concentration of 10 mM with DMSO. • 2. The test compounds were prepared to the concentration of 10 mM with DMSO. • 3. The compounds were added to a 384-well compound source plate. • 4. 3-folds serial dilutions were performed with DMSO. • 5. 90 nL/well of serial diluted compounds was transferred from source plate to a 384-well compound plate by using an Echo. • 6. 30 μL/well of assay buffer (20 mM HEPES in 1x HBSS, pH 7.4) was added to the compound plate. • 7. The plate was mixed on-plate shaker for 2 minutes.
• 1. After the cells were incubated with dye solution, the cell plate, compound plate containing 3×compounds and FLIPR tips were placed into FLIPR. • 2. 10 μL of 3×compounds transferred from the compound plate to the cell plate by FLIPR. • 3. The plate was read for 160 sec with 1 sec interval and the data of agonist mode was obtained.
(§1) • 1. The normalized fluorescence reading (RFU) was calculated as shown below, wherein Fmax and Fmin stand for maximum and minimum of calcium signal during defined time window:
RFU=Fmax−Fmin • 2. EC50 by fitting RFU against log of compound concentrations with Hill equation was calculated using XLfit.
The following procedure can also be followed: • 1. Cells are cultured in cell culture medium (DMEM containing 10% FBS, 1× penicillin-streptomycin 300 μg/ml G418 and 100 μg/ml hygromycin B) at 37° C., 5% (v/V) CO2. • 2. One day before the assays, the cells are detached using TrypLE™ Express and cells are counted using cell counter.

[2] = tested on: brain's default mode network; details: intravenously administered; cited from earlier work
5-HT2 receptor = details: daily administration; cited from earlier work
[3] = tested on: depression and anxiety associated with life-threatening disease; details: in a supportive setting; cited from earlier work
Plasma stability, rat = format: in vitro ADME; details: 37° C.
Protocol: (§2) • a. […] The final concentration of organic solvents was 0.5%. The assay was performed in duplicated. • b.
(§3) All calculations were carried out using Microsoft Excel.

Plasma stability, human = format: in vitro ADME; details: 37° C.
Protocol: as §2, §3

Plasma stability, mouse = format: in vitro ADME; details: 37° C.
Protocol: as §2, §3

human 5-HT1A receptor = target: T2, human 5-HT1A receptor (Homo sapiens, UniProt P08908); experiment: Human 5-HT1A: Functional FLIPR assay (agonist mode); format: cell-based; details: @10 μM (head); footnote: curve fitting with activation (%) @ 10 mM with RFU; RFU=Fmax−Fmin
T2 construct: expressed in transfected cells; host or cells: CHO (HTR1A&Ga15-CHO)
T2 sequence (P08908 1-422): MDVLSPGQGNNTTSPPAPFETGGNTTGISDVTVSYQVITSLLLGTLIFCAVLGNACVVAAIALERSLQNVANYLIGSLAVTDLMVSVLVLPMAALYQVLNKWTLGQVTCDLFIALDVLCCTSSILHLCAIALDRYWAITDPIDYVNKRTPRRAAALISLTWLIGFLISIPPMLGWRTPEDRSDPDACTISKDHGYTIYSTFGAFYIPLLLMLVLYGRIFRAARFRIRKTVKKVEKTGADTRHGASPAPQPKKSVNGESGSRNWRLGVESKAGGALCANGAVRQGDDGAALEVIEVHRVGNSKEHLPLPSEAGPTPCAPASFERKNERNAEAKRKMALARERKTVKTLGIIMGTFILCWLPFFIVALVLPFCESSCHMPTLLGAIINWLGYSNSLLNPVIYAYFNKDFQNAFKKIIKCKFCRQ
Protocol: The potential excitatory effects of compounds targeting on 5-hydroxytryptamine receptor 1A (5-HT1A) under agonist mode was assessed.
HTR1A&Ga15-CHO cells were cultured in DMEM/F12 medium containing 10% dialyzed FBS, 1x penicillin-streptomycin and 600 μg/mL Hygromycin B. The cells were passaged about three times a week, maintained between ~30% to ~90% confluence.
• 1. The cell culture medium (DMEM/F12 medium containing 10% dialyzed FBS, 1x penicillin-streptomycin and 600 μg/mL Hygromycin B), TrypLE™ Express and DPBS was warmed to R.T. in advance. • 2. The cell culture medium was removed from flask. Washed cells with DPBS. • 3. 1 mL TrypLE™ Express was added to the flask, mixed well by gentle shaking and cells were incubated at 37° C. for a few minutes. • 4. The cells were checked for morphological change under microscope, the digestion was stopped by adding 2 mL cell culture medium to the flask when most of cells turned to round. • 5. The cell suspension was transferred into a 15 mL centrifuge tube, and then centrifuged at 1,200 rpm for 5 minutes. • 6. The supernatant was removed. The cell pellet were resuspended with 2 mL cell culture medium. • 7. The cell density were counted using cell counter. Only cells with >85% viability were used for the assay. • 8. Cells were diluted to 4×10^5/mL with cell culture medium. • 9. 30 μL/well cell suspensions were added into a 384-well cell plate (The cell density was 12,000 cells/well). • 10. The cell plate was incubated overnight at 37° C., 5% (v/v) CO2.
• 1. On the day of experiments, culture medium was removed from the cell plate. • 2. 10 μL of assay buffer (20 mM HEPES, in 1×HBSS, pH 7.4) was added to each well of the cell plate. • 3. 2× dye solution was prepared following the manufacture's instruction of the FLIPR® Calcium 6 assay kit: • i. The dye was diluted with assay buffer. • ii. probenecid was added to the final concentration of 5 mM. • iii. Vortexed vigorously for 1-2 minutes, adjust pH to 7.4. • 4. 10 μL of 2×dye solution was added to each well of the cell plate. • 5. The cell plate was placed on plate shaker, followed by shaking at 600 rpm for 2 minutes. • 6. The plate was incubated at 37° C. for 2 hours followed by an additional 15-minute incubation at 25° C. 3.4 Prepare 3×compounds. • 1. Serotonin was prepared to the concentration of 10 mM with DMSO, 3-folds serial dilutions were performed with DMSO. • 2. Prepare the test compound to the concentration of 10 mM with DMSO, preform 3-folds serial dilutions with DMSO. • 3. The compounds were added to a 384-well compound source plate. • 4. 90 nL/well of serial diluted compounds were transferred from source plate to a 384-well compound plate by using an Echo. • 5. 30 μL/well of assay buffer was added to the compound plate. • 6. The plate was mixed on-plate shaker for 2 minutes. 3.5 FLIPR assay • 1. After the cells incubate with dye solution, the cell plate, compound plate containing 3×compounds and FLIPR tips were placed into FLIPR. • 2. 10 μL of 3×compounds were transferred from the compound plate to the cell plate by FLIPR. • 3. The plate was read for 160 sec with 1 sec interval to obtain the data of agonist mode.
as §1
RFU=Fmax−Fmin • 2. EC50 was calculated by fitting RFU against log of compound concentrations with Hill equation using XLfit.

[4] = 30 min, read-out: Remaining Percentage (%), 30 min
[5] = 60 min, read-out: Remaining Percentage (%), 60 min
[6] = >255.85 if remaining at 60 min greater than 85%

Chain of human 5-HT2A receptor (P28223 whole entry): as the sequence (P28223 whole entry) above

COc1ccc2c(c1)N(C[C@@H]1CCCN1C)CC2 [(S)-I-58, (S)-6-Methoxy-1-((1-methylpyrrolidin-2-yl)methyl) indoline]
IC50 (human 5-HT2A receptor): > 30 µM | RFU@10 μM [1]: 203 RFU

CCN(CC)C(=O)[C@@H]1C=C2c3cccc4[nH]cc(c34)C[C@H]2N(C)C1 [LSD]
oscillatory power in areas of the brain's default mode network [2]: decreases in oscillatory power in areas of the brain's default mode network | 5-HT2 receptor density in rat brain (5-HT2 receptor): selectively decreased 5-HT2 receptor density in the rat brain; also recorded: reduce 5-HT2 receptor density in rat brain | anti-depressant and anxiolytic effects [3]: significant and sustained anti-depressant and anxiolytic effects

CC[C@H](C)C(=O)O[C@H]1C[C@@H](C)C=C2C=C[C@H](C)[C@H](CC[C@@H]3C[C@@H](O)CC(=O)O3)[C@H]21 [Lovastatin, reference compound]
Remaining Percentage (%), 0 min (Plasma stability, rat; 0 min): 100.00% | remaining at 0.5 h (Plasma stability, rat; [4]): 0.61% | remaining at 1 h (Plasma stability, rat; [5]): 0.33%

CC(C)[N+](C)(CCOC(=O)C1c2ccccc2Oc2ccccc21)C(C)C [Propantheline, reference compound]
Remaining Percentage (%), 0 min (Plasma stability, human; 0 min): 100.00% | remaining at 0.5 h (Plasma stability, human; [4]): 29% | remaining at 1 h (Plasma stability, human; [5]): 2.58% | half-life (Plasma stability, human; [6]): 11.4 min | Remaining Percentage (%), 0 min (Plasma stability, mouse; 0 min): 100.00% | remaining at 0.5 h (Plasma stability, mouse; [4]): 61.6% | half-life (Plasma stability, mouse; [6]): 37.1 min

CN(C)CCc1c[nH]c2cccc(O)c12 [Psilocin, 4-hydroxy-N,N-dimethyltryptamine, reference compound]
RFU@10 μM (human 5-HT1A receptor): 140 RFU

Reference: patent US20260356814A1, “INDOLINE DERIVATIVES AS SEROTONERGIC AGENTS USEFUL FOR THE TREATMENT OF DISORDERS RELATED THERETO” (MINDSET PHARMA INC., priority 2022, published 2026)
